# According to patent US8318716B2, “Carbapenem derivatives” (KBP Biosciences Co., Ltd., priority 2009, dated 2012):
# Read-outs that look alike come from different tables or passages of the source.
# Legend:
# Type in all cases: cell-based
# [1] = tested on: methicillin-resistant Staphylococcus epidermidis (MRSE); assay: In vitro antibacterial activity, agar dilution method, MRSE; conditions: clinically isolated strains
# Excerpt: (§1) Bacterial strains for test: All the bacterial strains are clinically isolated strains obtained from public sources. (1) Gram-positive bacteria: methicillin-sensitive Staphylococcus aureus (MSSA), methicillin-resistant Staphylococcus aureus (MRSA), methicillin-resistant Staphylococcus epidermidis (MRSE), methicillin-sensitive Staphylococcus epidermidis (MSSE), penicillin-sensitive Streptococcus pneumoniae (PSSP), and penicillin-resistant Streptococcus pneumoniae (PRSP); (2) Gram-negative bacteria: Escherichia coli (products from ESBLs), Klebsiella pneumonia, and Pseudomonas aeruginosa.
# (§2) Drugs to be tested: Compounds 1 to 5, prepared as described above; Control drugs:
# (§3) Meropenem (Meropenem for injection), Imipenem (Imipenem for injection), commercially available.
# (§4) Experimental Method: the agar dilution method, by reference to Methodology of Pharmacological Experiment (X U Shuyun et al, published by the Peoples Medical Publishing House, 1st Edition, August, 1982; 3rd Edition, 5th printing, January 2002, p 1659-1660).
# [2] = tested on: methicillin-sensitive Staphylococcus epidermidis (MSSE); assay: In vitro antibacterial activity, agar dilution method, MSSE
# Excerpt: as §1, §2, §3, §4
# [3] = tested on: Escherichia coli (products from ESBLs); assay: In vitro antibacterial activity, agar dilution method, ESBLs; conditions: clinically isolated strains
# Excerpt: as §1, §2, §3, §4
# [4] = tested on: methicillin-sensitive Staphylococcus aureus (MSSA); assay: In vitro antibacterial activity, agar dilution method, MSSA; conditions: clinically isolated strains
# Excerpt: as §1, §2, §3, §4
# [5] = tested on: proteus mirabilis; assay: In vitro antibacterial activity, agar dilution method, proteus mirabilis; conditions: clinically isolated strains
# [6] = tested on: Klebsiella pneumonia; assay: In vitro antibacterial activity, agar dilution method, klebsiella pneumonia; conditions: Klebsiella pneumoniae, clinically isolated strains
# Excerpt: as §1, §2, §3, §4
# [7] = tested on: penicillin-resistant Streptococcus pneumoniae (PRSP); assay: In vitro antibacterial activity, agar dilution method, PRSP; conditions: clinically isolated strains
# Excerpt: as §1, §2, §3, §4
# [8] = tested on: methicillin-resistant Staphylococcus aureus (MRSA); assay: In vitro antibacterial activity, agar dilution method, MRSA; conditions: clinically isolated strains
# Excerpt: as §1, §2, §3, §4
# [9] = tested on: Pseudomonas aeruginosa; assay: In vitro antibacterial activity, agar dilution method, pseudomonas aeruginosa; conditions: clinically isolated strains
# Excerpt: as §1, §2, §3, §4
# [10] = tested on: penicillin-sensitive Streptococcus pneumoniae (PSSP); assay: In vitro antibacterial activity, agar dilution method, PSSP; conditions: clinically isolated strains
# Excerpt: as §1, §2, §3, §4
# [11] = MSSE, clinically isolated strains, agar dilution, read-out: MIC90
MIC90 [1] [µg/mL],"MIC90 [2, 11] [µg/mL]",MIC90 [3] [µg/mL],MIC90 [4] [µg/mL],MIC90 [5] [µg/mL],MIC90 [6] [µg/mL],MIC90 [7] [µg/mL],MIC90 [8] [µg/mL],MIC90 [9] [µg/mL],MIC90 [10] [µg/mL],SMILES,MIC90 [2] [µg/mL]
32,0.031,0.031,0.063,0.125,0.031,0.25,16,4,0.016,"COc1ccc(CNC(=O)[C@@H]2C[C@H](SC3=C(C(=O)O)N4C(=O)[C@H]([C@@H](C)O)[C@H]4[C@H]3C)CN2)cc1 [Compound 1, (4R,5S,6S)-6-((R)-1-hydroxyethyl)-3-((3S,5S)-5-(4-methoxybenzylcarbamoyl)pyrrolidin-3-ylthio)-4-methyl-7-oxo-1-azabicyclo[3.2.0]hept-2-ene-2-carboxylic acid]",–
32,0.063,0.063,–,0.125,0.063,0.125,16,4,0.016,C[C@@H](O)[C@H]1C(=O)N2C(C(=O)O)=C(S[C@@H]3CN[C@H](C(=O)NCc4ccc(S(N)(=O)=O)cc4)C3)[C@H](C)[C@H]12 [Compound 2],–
16,0.063,0.016,0.063,0.125,0.063,0.25,16,2,0.016,C[C@@H](O)[C@H]1C(=O)N2C(C(=O)O)=C(S[C@@H]3CN[C@H](C(=O)NCc4ccc(OC(F)F)cc4)C3)[C@H](C)[C@H]12 [Compound 5],–

# More lines, now with the values behind:
SMILES,MIC90 [1] [µg/mL],"MIC90 [2, 11] [µg/mL]",MIC90 [3] [µg/mL],MIC90 [4] [µg/mL],MIC90 [5] [µg/mL],MIC90 [6] [µg/mL],MIC90 [7] [µg/mL],MIC90 [8] [µg/mL],MIC90 [9] [µg/mL],MIC90 [10] [µg/mL],MIC90 [2] [µg/mL]
C[C@@H](O)[C@H]1C(=O)N2C(C(=O)O)=C(S[C@@H]3CN[C@H](C(=O)NCc4cccc(CCC(=O)O)c4)C3)[C@H](C)[C@H]12 [Compound 3],32,0.031,0.031,0.063,0.25,0.031,0.25,32,2,0.031,–
"C[C@@H](O)[C@H]1C(=O)N2C(C(=O)O)=C(S[C@@H]3CN[C@H](C(=O)NCc4ccc(OC(F)(F)F)cc4)C3)[C@H](C)[C@H]12 [Compound 4, (4R,5S,6S)-6-((R)-1-hydroxyethyl)-4-methyl-7-oxo-3-((3S,5S)-5-(4-(trifluoromethoxy)benzylcarbamoyl)pyrrolidin-3-ylthio)-1-azabicyclo[3.2.0]hept-2-ene-2-carboxylic acid]",16,0.031,0.016,0.031,0.125,0.031,0.125,16,4,0.016,–
"C[C@@H](O)[C@H]1C(=O)N2C(C(=O)O)=C(SCCN=CN)C[C@H]12 [Imipenem, reference compound]",64,0.031,0.25,0.063,8,0.5,0.5,32,8,0.016,–
"C[C@@H](O)[C@H]1C(=O)N2C(C(=O)O)=C(S[C@@H]3CN[C@H](C(=O)N(C)C)C3)[C@H](C)[C@H]12 [Meropenem, reference compound]",64,–,0.031,0.25,0.25,0.063,1,64,4,0.031,0.125
